Test results published in PMC11286609, “In vitro and in vivo analyses of eFAP: a novel FAP-targeting small molecule for radionuclide theranostics and other oncological interventions” (EJNMMI Radiopharmacy and Chemistry, 2024).
One block for each molecule: values may come before it.

Experiments:
[1] = Stability in human serum at 37 °C (radio-HPLC / LC-MS); type: in vitro ADME; settings: for Stability (% ± SD) Human serum 1 h / Stability (% ± SD) Human serum 4 h / Stability (% ± SD) Human serum 24 h: % intact labeled ligand, 37 °C; for degradation: human serum (HS), up to 24 h of incubation
Protocol: (§1) For the stability assessment of eFAP-6, [^111In]In-eFAP-6 or [^177Lu]Lu-eFAP-6 (~ 3–7 MBq, 20 µL) was mixed with 180 µL of PBS (0.01 M, pH 7.4) and incubated at 37 °C for up to 24 h. A sample of the PBS solution was directly injected on the radio-HPLC at 1, 4, and 24 h after incubation. Additionally, [^111In]In-eFAP-6 and [^177Lu]Lu-eFAP-6 (5–15 MBq, 50 µL) were incubated with 350 µL of commercially acquired mouse or human serum (Biolegend; San Diego, CA, USA) at 37 °C for up to 24 h. Following 1, 4, and 24 h of incubation, 50 µL of the solution were mixed with 50 µL of acetonitrile in an Eppendorf tube, and centrifuged at 5000× g for 20 min. The supernatant was then analyzed by radio-HPLC. Stability studies of eFAP-7 were performed by incubation of eFAP-7 (50 µL, 10^− 4 M) in 450 µL PBS or serum at 37 °C for up to 24 h. After 1, 4, and 24 h of incubation, 50 µL of the PBS incubation solution were directly analyzed by liquid chromatography-mass spectrometry (LC-MS), while 50 µL of the serum solution was mixed with 50 µL of acetonitrile in an Eppendorf tube, and centrifuged at 5000× g for 20 min, followed by LC-MS analyses.

[2] = Stability in PBS at 37 °C (radio-HPLC / LC-MS); type: physicochemical; settings: for Stability (% ± SD) PBS 1 h / Stability (% ± SD) PBS 4 h / Stability (% ± SD) PBS 24 h: % intact labeled ligand, 37 °C; for degradation: up to 24 h of incubation
Protocol: as §1

[3] = system: HT1080-huFAP and HT1080-WT tumor-bearing mice; experiment: Ex vivo biodistribution study in tumor-bearing mice; settings: for Biodistribution Bone: femur; for Biodistribution Bone / Biodistribution Blood / Biodistribution Cecum / Biodistribution Colon / Biodistribution Heart / Biodistribution Kidneys / Biodistribution Liver / Biodistribution Lungs / Biodistribution Muscle / Biodistribution Pancreas / Biodistribution Salivary glands / Biodistribution Small intestines / Biodistribution Stomach / Biodistribution Tumor HT1080-WT / Biodistribution Tumor HT1080-huFAP: i.v., 2.6 MBq/200 pmol; for Biodistribution GI Tract: stomach, small intestines, cecum and colon combined
From the text: All animal experiments were approved by the Erasmus MC Animal Welfare Committee and were in accordance with European law. Five-week-old male NMRI-Foxn1 nu/nu mice (Janvier; Le Genest-Saint-Isle, France) were housed in individually ventilated cages with a maximum of three mice per cage. After one week of acclimatization, mice were subcutaneously inoculated with HT1080-huFAP on the right shoulder and HT1080-WT on the left shoulder (2.5 × 10^6 cells in Hank’s Balanced Salt Solution (Gibco)). Tumors were allowed to grow for 10 days, resulting in tumor sizes of 537 ± 269 mm^3 and 305 ± 190 mm^3 for HT1080-huFAP and HT1080-WT, respectively, at the start of the experiment. The animals received 200 µL of [^177Lu]Lu-eFAP-6 (n=3/4 per group) or [^177Lu]Lu-FAPI-46 (n=3/4 per group) (2.6 MBq/200 pmol) by intravenous injection through the tail vein, andat 1, 4, and 24 h p.i. biodistribution studies were performed. Blood was collected by orbital puncture under isoflurane/O2 anesthesia, immediately followed by cervical dislocation. Hereafter the two tumor xenografts, pancreas, liver, GI-tract (stomach, small intestine, cecum, colon), kidneys (left and right), lungs, heart, salivary glands, muscle, and bone (femur), were collected, weighed, and measured in a y-counter (PerkinElmer), alongside 10 µL of the injected activity as standard. The results are expressed as the percentage injected dose per gram (% ID/g).
All statistical analyses were performed with GraphPad Prism version 9.0 (San Diego, California USA). All IC50 values were determined using a non-linear regression Log(inhibitor) vs. response analysis with variable slope (four parameters). For the in vivo results outliers were identified by a ROUT test (Q = 1%) and excluded. Next, a two-tailed student’s t-test was performed (*p < 0.05, **p < 0.01, ***p < 0.001). All experiments were performed in triplicate and repeated at least three times.

[4] = Stability in mouse serum at 37 °C (radio-HPLC / LC-MS); type: in vitro ADME; settings: for Stability (% ± SD) Mouse serum 1 h / Stability (% ± SD) Mouse serum 4 h / Stability (% ± SD) Mouse serum 24 h: % intact labeled ligand, 37 °C; for degradation: mouse serum (MS), up to 24 h of incubation
Protocol: as §1

[5] = system: HT1080-huFAP cells; experiment: Radiotracer uptake assay in FAP-expressing cells; type: cell-based, human
Protocol: Cell experiments were performed with the human sarcoma HT1080 cell line, stably transduced with human FAP (HT1080-huFAP) which were kindly provided by Prof. Dr. Uwe Haberkorn from the University of Heidelberg. The wild type HT1080 (ATTC), hereafter HT080-WT, was used as a negative control. Additionally, the pancreatic stellate cells PS-1, obtained from Queen Mary University, were used as an endogenously FAP expressing cell line. HT1080-huFAP and HT1080-WT cells were cultured in DMEM Glutamax© (Gibco; Breda, The Netherlands) and the PS-1 cells were cultured in RPMI (Gibco). Both media were supplemented with 10% FBS (Gibco), 100 UI/mL penicillin, and 100 µg/mL streptomycin (Merck Life Science NV; Amsterdam, The Netherlands). All cell lines were regularly passaged at 80% confluence and cultured at 37 °C, 5% CO2.
In vitro displacement studies of eFAP-6 and eFAP-7, as well as specificity and uptake assays, were performed using HT0180-huFAP cells. One day prior to the assay 100,000 cells were seeded in a 12-well plate in triplicate. […] For the uptake assay, the cells were incubated with 1 nM [^111In]In-eFAP-6 or [^111In]In-FAPI-46 for different time points (5–120 min) in the presence and absence of 1 mM UAMC-1110 to determine the specificity of^111 radiotracer binding. In both assays, the cells were washed twice with PBS after incubation and were subsequently lysed using 1 M NaOH for 20 min. The cell lysates were collected and radioactivity was measured in a γ-counter (PerkinElmer), simultaneously with 100 µL of the radioactive incubation medium as a standard. Cells in separate wells were collected with Trypsin-EDTA (Gibco) for counting by the automated Countess II cell counter (Thermo Fisher Scientific; Bleiswijk, The Netherlands). Uptake was expressed as percentage added activity per 200,000 cells (% AA/200,000 cells), and specific uptake was corrected by subtracting the uptake measured in the block wells.

[6] = LogD7.4 shake-flask method (n-octanol/PBS); type: physicochemical; settings: n-octanol/PBS pH 7.4, shake-flask
Protocol: The distribution coefficients (LogD7.4) were determined using a shake-flask method, in which 2 µL (~ 0.5 MBq) of [^111In]In-eFAP-6 or 10 µL of eFAP-7 (10^− 4 M) was added to an Eppendorf tube containing 1 mL of PBS (0.01 M, pH 7.4) and n-octanol (v/v, 1:1). After vigorous vortexing, the solution was centrifuged at 2500× g for 15 min for phase separation. For radiolabeled eFAP-6, samples (3 × 10 µL) of the octanol and aqueous phases were taken out and measured in a 1480 Wizard automatic γ-counter (PerkinElmer; Groningen, The Netherlands). LogD7.4 values were calculated by using the following equation: LogD7.4 = log [(counts in octanol phase)/(counts in aqueous phase)]. For eFAP-7, samples (50 µL) of the octanol and aqueous phases were taken out and measured by LC-MS. LogD7.4 values were calculated by using the following equation: LogD7.4 = log [(area in octanol phase)/(area in aqueous phase)].

Stability (% ± SD) Human serum 1 h [1]: 99.5 ± 0.0%
Stability (% ± SD) Human serum 4 h [1]: 99.5 ± 0.0%
Stability (% ± SD) Human serum 24 h [1]: 98.1 ± 0.3%
degradation [1]: less than 5%
Stability (% ± SD) PBS 1 h [2]: 97.6 ± 1.1%
Stability (% ± SD) PBS 4 h [2]: 97.3 ± 0.4%
Stability (% ± SD) PBS 24 h [2]: 94.9 ± 0.6%
degradation [2]: less than 5%
Biodistribution Bone ([3]; 1 h p.i.): 1,80 ± 0,44 %ID/g
Biodistribution Blood ([3]; 1 h p.i.): 0,38 ± 0,08 %ID/g
Biodistribution Cecum ([3]; 1 h p.i.): 0,36 ± 0,01 %ID/g
Biodistribution Colon ([3]; 1 h p.i.): 0,19 ± 0,05 %ID/g
Biodistribution Heart ([3]; 1 h p.i.): 0,15 ± 0,04 %ID/g
Biodistribution Kidneys ([3]; 1 h p.i.): 2,46 ± 0,83 %ID/g
Biodistribution Liver ([3]; 1 h p.i.): 2,32 ± 0,43 %ID/g
Biodistribution Lungs ([3]; 1 h p.i.): 0,33 ± 0,08 %ID/g
Biodistribution Muscle ([3]; 1 h p.i.): 0,19 ± 0,03 %ID/g
Biodistribution Pancreas ([3]; 1 h p.i.): 0,25 ± 0,02 %ID/g
Biodistribution Salivary glands ([3]; 1 h p.i.): 0,56 ± 0,08 %ID/g
Biodistribution Small intestines ([3]; 1 h p.i.): 0,33 ± 0,34 %ID/g
Biodistribution Stomach ([3]; 1 h p.i.): 0,33 ± 0,32 %ID/g
Biodistribution Tumor HT1080-WT ([3]; 1 h p.i.): 0,50 ± 0,11 %ID/g
Biodistribution Tumor HT1080-huFAP ([3]; 1 h p.i.): 6,44 ± 1,09 %ID/g
Biodistribution Bone ([3]; 4 h p.i.): 1,27 ± 0,24 %ID/g
Biodistribution Blood ([3]; 4 h p.i.): 0,22 ± 0,07 %ID/g
Biodistribution Cecum ([3]; 4 h p.i.): 0,32 ± 0,08 %ID/g
Biodistribution Colon ([3]; 4 h p.i.): 0,14 ± 0,03 %ID/g
Biodistribution Heart ([3]; 4 h p.i.): 0,10 ± 0,03 %ID/g
Biodistribution Kidneys ([3]; 4 h p.i.): 1,11 ± 0,21 %ID/g
Biodistribution Liver ([3]; 4 h p.i.): 2,87 ± 1,18 %ID/g
Biodistribution Lungs ([3]; 4 h p.i.): 0,15 ± 0,03 %ID/g
Biodistribution Muscle ([3]; 4 h p.i.): 0,16 ± 0,06 %ID/g
Biodistribution Pancreas ([3]; 4 h p.i.): 0,18 ± 0,06 %ID/g
Biodistribution Salivary glands ([3]; 4 h p.i.): 0,41 ± 0,14 %ID/g
Biodistribution Small intestines ([3]; 4 h p.i.): 0,12 ± 0,04 %ID/g
Biodistribution Stomach ([3]; 4 h p.i.): 0,11 ± 0,04 %ID/g
Biodistribution Tumor HT1080-WT ([3]; 4 h p.i.): 0,36 ± 0,11 %ID/g
Biodistribution Tumor HT1080-huFAP ([3]; 4 h p.i.): 5,92 ± 1,63 %ID/g
Biodistribution GI Tract ([3]; 4 h p.i.): 0,17 ± 0,05 %ID/g
Biodistribution Bone ([3]; 24 h p.i.): 0,19 ± 0,01 %ID/g
Biodistribution Blood ([3]; 24 h p.i.): 0,01 ± 0,00 %ID/g
Biodistribution Cecum ([3]; 24 h p.i.): 0,03 ± 0,00 %ID/g
Biodistribution Colon ([3]; 24 h p.i.): 0,02 ± 0,01 %ID/g
Biodistribution Heart ([3]; 24 h p.i.): 0,01 ± 0,00 %ID/g
Biodistribution Liver ([3]; 24 h p.i.): 1,67 ± 1,07 %ID/g
Biodistribution Lungs ([3]; 24 h p.i.): 0,01 ± 0,00 %ID/g
Biodistribution Muscle ([3]; 24 h p.i.): 0,01 ± 0,00 %ID/g
Biodistribution Pancreas ([3]; 24 h p.i.): 0,01 ± 0,00 %ID/g
Biodistribution Salivary glands ([3]; 24 h p.i.): 0,02 ± 0,00 %ID/g
Biodistribution Small intestines ([3]; 24 h p.i.): 0,02 ± 0,00 %ID/g
Biodistribution Stomach ([3]; 24 h p.i.): 0,02 ± 0,01 %ID/g
Biodistribution Tumor HT1080-WT ([3]; 24 h p.i.): 0,06 ± 0,01 %ID/g
Biodistribution GI Tract ([3]; 24 h p.i.): 0,02 ± 0,00 %ID/g
Stability (% ± SD) Mouse serum 1 h [4]: 99.3 ± 1.2%
Stability (% ± SD) Mouse serum 4 h [4]: 99.5 ± 0.5%
Stability (% ± SD) Mouse serum 24 h [4]: 98.1 ± 0.4%
degradation [4]: less than 5%
SMILES: N#C[C@@H]1CC(F)(F)CN1C(=O)CNC(=O)c1ccnc2c(OCCCNC(=O)CN3CCN(CC(=O)[O-])CCN(CC(=O)[O-])CCN(CC(=O)[O-])CC3)cccc12.[177Lu+3] [[^177Lu]Lu-eFAP-6]

Stability (% ± SD) Human serum 1 h [1]: 91.2 ± 0.1%
Stability (% ± SD) Human serum 4 h [1]: 91.3 ± 0.7%
Stability (% ± SD) Human serum 24 h [1]: 90.4 ± 0.8%
degradation [1]: less than 10%
LogD7.4 [6]: -3.90 ± 0.03
Stability (% ± SD) PBS 1 h [2]: 93.2 ± 0.5%
Stability (% ± SD) PBS 4 h [2]: 93.1 ± 0.6%
Stability (% ± SD) PBS 24 h [2]: 92.3 ± 0.6%
degradation [2]: less than 10%
Stability (% ± SD) Mouse serum 1 h [4]: 92.1 ± 1.2%
Stability (% ± SD) Mouse serum 4 h [4]: 92.1 ± 1.4%
Stability (% ± SD) Mouse serum 24 h [4]: 91.0 ± 0.9%
degradation [4]: less than 10%
SMILES: N#C[C@@H]1CC(F)(F)CN1C(=O)CNC(=O)c1ccnc2c(OCCCNC(=O)CN3CCN(CC(=O)[O-])CCN(CC(=O)[O-])CCN(CC(=O)[O-])CC3)cccc12.[111In+3] [[^111In]In-eFAP-6]
incubation time at peak uptake ([5]; 1 nM radiotracer, 5–120 min): 15 min
peak uptake ([5]; 1 nM radiotracer, 5–120 min): 20.8 % AA/200,000 cells
uptake on co-incubation with an excess of UAMC-1110 (block) ([5]; 1 mM UAMC-1110, 45 min): negligible uptake
